Measurements published in patent publication US20220145343A1 (priority 2019, published 2022).
“And” between values parts separate entries of the source, which are not always exact repeats. Equal values may be shown once. Marks after values point to notes of the source that are not given here.

Experiments:
[1] = test system: α1-4-galactosyltransferase activity of NmSiaDW; assay type: biochemical, Neisseria meningitidis
[2] = test system: NmCSS and PmAldolase; assay type: biochemical, Neisseria meningitidis; Pasteurella multocida
[3] = test system: α2-6-sialyltransferase activity of NmSiaDW; assay type: biochemical, Neisseria meningitidis
[4] = test system: α1-4-galactosyltransferase activity of NmSiaDW; test: Donor substrate specificity for the α1-4-galactosyltransferase activity of NmSiaDW using different sugar nucleotides (acceptor S3); assay type: biochemical, Neisseria meningitidis; settings: for Percentage conversion (%): acceptor S3 1 mM, donor 2 mM, 30° C.
Experimental: Galactosyltransferase activity was assayed in reaction buffer (100 mM MES, pH 6.5, 10 mM MgCl2) in the presence of 2 mM UDP-sugars and 1 mM Neu5Acα2-6Galα1-4Neu5AcαProNHCbz in a total volume of 10 μL. Reaction was performed at 30° C. with 0.11 μg NmSiaDW for 10 min or 6.6 μg NmSiaDW for 10 h. Reaction was quenched by addition of 10 μL pre-chilled ethanol and incubated at −20° C. for 30 min. […] GDP-Fuc and CMP-Neu5Ac were also included.
Samples were analyzed using UPLC with EcilpsePlusC18 column or AdvancBio Glycan Map column, Agilent. The samples were further analyzed by electrospray ionization (ESI)-HRMS using a Thermo Electron LTQ-Orbitrap Hybrid MS in a negative mode.

[5] = target: NmSiaDW galactosyltransferase activity (Neisseria meningitidis, UniProt O33390); settings: apparent; varying acceptor, 2 mM UDP-Gal, pH 6.5, 30° C.
Chain of NmSiaDW galactosyltransferase activity (O33390 1-1037): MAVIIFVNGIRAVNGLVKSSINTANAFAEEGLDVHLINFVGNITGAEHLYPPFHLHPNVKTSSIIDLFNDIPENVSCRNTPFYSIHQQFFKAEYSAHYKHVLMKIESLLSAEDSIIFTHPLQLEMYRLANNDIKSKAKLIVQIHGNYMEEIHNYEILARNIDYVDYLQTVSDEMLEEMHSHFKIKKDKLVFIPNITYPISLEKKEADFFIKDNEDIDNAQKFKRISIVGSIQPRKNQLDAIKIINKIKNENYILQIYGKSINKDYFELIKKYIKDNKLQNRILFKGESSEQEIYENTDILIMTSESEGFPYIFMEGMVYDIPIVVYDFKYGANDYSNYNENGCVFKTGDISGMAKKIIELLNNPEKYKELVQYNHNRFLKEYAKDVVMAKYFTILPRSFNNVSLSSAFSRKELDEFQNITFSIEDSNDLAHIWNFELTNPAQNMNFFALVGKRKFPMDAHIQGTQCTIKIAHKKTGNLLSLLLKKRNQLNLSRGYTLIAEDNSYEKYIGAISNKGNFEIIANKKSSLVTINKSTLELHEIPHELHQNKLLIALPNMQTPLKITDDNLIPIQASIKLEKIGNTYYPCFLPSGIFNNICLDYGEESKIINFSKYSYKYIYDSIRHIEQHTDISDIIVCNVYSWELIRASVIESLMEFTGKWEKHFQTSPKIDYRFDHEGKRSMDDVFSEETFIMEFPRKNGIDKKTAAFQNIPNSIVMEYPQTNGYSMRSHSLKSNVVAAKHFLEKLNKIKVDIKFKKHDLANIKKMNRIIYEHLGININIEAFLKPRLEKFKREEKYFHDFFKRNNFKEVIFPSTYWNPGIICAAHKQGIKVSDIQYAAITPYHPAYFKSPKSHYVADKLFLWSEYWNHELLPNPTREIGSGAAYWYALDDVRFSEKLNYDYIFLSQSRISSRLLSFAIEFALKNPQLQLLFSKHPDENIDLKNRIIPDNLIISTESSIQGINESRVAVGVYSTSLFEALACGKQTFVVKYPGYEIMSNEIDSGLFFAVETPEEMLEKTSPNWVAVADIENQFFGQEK

[6] = target: NmSiaDW sialyltransferase activity (Neisseria meningitidis, UniProt O33390); settings: apparent; varying acceptor, 10 mM CMP-Neu5Ac, pH 8.0, 30° C.
Chain of NmSiaDW sialyltransferase activity (O33390 1-1037): as above

[7] = target: NmCSS (Neisseria meningitidis, UniProt P0A0Z8); assay type: biochemical; settings: step 1 in the presence of NmCSS (0.75 mg/mL) for 10 h
Chain of NmCSS (P0A0Z8 whole entry): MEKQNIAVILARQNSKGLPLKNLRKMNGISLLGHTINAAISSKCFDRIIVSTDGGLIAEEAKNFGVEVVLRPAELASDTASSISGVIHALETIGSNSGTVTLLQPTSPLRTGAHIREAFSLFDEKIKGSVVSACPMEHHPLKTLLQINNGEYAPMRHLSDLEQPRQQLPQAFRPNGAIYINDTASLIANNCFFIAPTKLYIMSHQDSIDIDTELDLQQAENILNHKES

CC(=O)NC1C(OCCCCl)OC(CO)C(O)C1OC1OC(CO)C(O)C(OC2(C(=O)O)CC(O)C(N=[N+]=[N-])C(C(N=[N+]=[N-])C(C)O)O2)C1O (stereo not drawn) [Leg5,7diN3α2-3Galβ1-3GalNAcβProCl]
Product [1]: √

[N-]=[N+]=N[C@H](C=O)[C@@H](O)[C@H](O)[C@H](O)CO [Man2N3, 2-azido-2-deoxy-mannose]
Percentage conversion (%) CMP-Sialic acid [2]: 77 ± 1 ^b % | Percentage conversion (%) Transferase Reaction [3]: 0%

Neu5Ac9N3α2-6Galα1-4Neu5AcαProNHCbz
Product [1]: √

CC(=O)N[C@H]1[C@@H](OP(=O)(O)OP(=O)(O)OC[C@H]2O[C@@H](n3ccc(=O)[nH]c3=O)[C@H](O)[C@@H]2O)O[C@H](CO)[C@@H](O)[C@@H]1O [UDP-GlcNAc]
Percentage conversion (%) ([4]; 11 μg/mL NmSiaDW, 10 min): 0% | Percentage conversion (%) ([4]; 0.66 mg/mL NmSiaDW, 10 h): 0%

CC(=O)N[C@H]1[C@H]([C@H](O)[C@H](O)CO)O[C@@](OCCCNC(=O)OCc2ccccc2)(C(=O)O)C[C@@H]1O[C@H]1O[C@H](CO[C@]2(C(=O)O)C[C@H](O[C@H]3O[C@H](CO[C@]4(C(=O)O)C[C@H](O[C@H]5O[C@H](CO[C@]6(C(=O)O)C[C@H](O)[C@@H](NC(C)=O)[C@H]([C@H](O)[C@H](O)CO)O6)[C@H](O)[C@H](O)[C@H]5O)[C@@H](NC(C)=O)[C@H]([C@H](O)[C@H](O)CO)O4)[C@H](O)[C@H](O)[C@H]3O)[C@@H](NC(C)=O)[C@H]([C@H](O)[C@H](O)CO)O2)[C@H](O)[C@H](O)[C@H]1O [S7, Neu5Acα2(-6Galα1-4Neu5Acα2)3-ProNHCbz]
Km [5]: 70 ± 10 µM | kcat [5]: 5.5 ± 0.2 s⁻¹

CC(=O)N[C@H]1[C@@H](OP(=O)(O)OP(=O)(O)OC[C@H]2O[C@@H](n3ccc(=O)[nH]c3=O)[C@H](O)[C@@H]2O)O[C@H](CO)[C@H](O)[C@@H]1O [UDP-GalNAc]
Percentage conversion (%) ([4]; 11 μg/mL NmSiaDW, 10 min): 0% | Percentage conversion (%) ([4]; 0.66 mg/mL NmSiaDW, 10 h): 1.9 ± 0.2% | donor substrate quality in words ([4]; compared to UDP-Gal, acceptor S3): tolerated as poor donor substrate

CC(=O)N[C@H]1[C@H]([C@H](O)[C@H](O)CO)O[C@@](OC[C@H]2O[C@H](O[C@H]3C[C@](OCCCNC(=O)OCc4ccccc4)(C(=O)O)O[C@@H]([C@H](O)[C@H](O)CO)[C@@H]3NC(C)=O)[C@H](O)[C@@H](O)[C@H]2O)(C(=O)O)C[C@@H]1O[C@H]1O[C@H](CO)[C@H](O)[C@H](O)[C@H]1O [G4, Galα1-4Neu5Acα2-6Galα1-4Neu5AcαProNHCbz]
kcat [6]: 23.1 ± 1.1 s⁻¹

CC(=O)N[C@H]1[C@H]([C@H](O)[C@H](O)CO)OC(OC[C@H]2O[C@@H](Oc3ccc([N+](=O)[O-])cc3)[C@H](O)[C@@H](O)[C@H]2O)(C(=O)O)C[C@@H]1O (stereo partly shown) [Neu5Acα2-6GalβpNP]
Product [1]: √

CC(=O)NC1C(O)CC(OC2C(O)C(CO)OC(OC3C(O)C(CO)OC(OCCCN=[N+]=[N-])C3NC(C)=O)C2O)(C(=O)O)OC1C(O)C(O)CO (stereo not shown) [Neu5Acα2-3Galβ1-3GalNAcβProN3]
Product [1]: √ | acceptor substrate suitability in words [1]: could also tolerate

Neu5Ac7N3α2-6Galα1-4Neu5AcαProNHCbz
Product [1]: √

CC(=O)N[C@H]1[C@H]([C@H](O)[C@H](O)CO)OC(O)(C(=O)O)C[C@@H]1O (stereo partly shown) [Neu5Ac, N-acetylneuraminic acid]
Percentage conversion (%) CMP-Sialic acid [7]: Quantitative ^a

O=C(CO)N[C@H]1[C@H]([C@H](O)[C@H](O)CO)OC(O)(C(=O)O)C[C@@H]1O (stereo partly shown) [Neu5Gc, N-glycolylneuraminic acid]
Percentage conversion (%) Transferase Reaction [3]: 47 ± 3% and 88 ± 3% | Percentage conversion (%) CMP-Sialic acid [7]: 90 ± 2 ^a %

O=C(O)[C@H]1O[C@H](OP(=O)(O)OP(=O)(O)OC[C@H]2O[C@@H](n3ccc(=O)[nH]c3=O)[C@H](O)[C@@H]2O)[C@H](O)[C@@H](O)[C@H]1O [UDP-GalA]
Percentage conversion (%) ([4]; 11 μg/mL NmSiaDW, 10 min): 0% | Percentage conversion (%) ([4]; 0.66 mg/mL NmSiaDW, 10 h): <1%

CC(=O)N[C@@H]1[C@@H](OP(=O)(O)OP(=O)(O)OC[C@H]2O[C@@H](n3ccc(=O)[nH]c3=O)[C@H](O)[C@@H]2O)O[C@H](CO)[C@@H](O)[C@@H]1O [UDP-ManNAc]
Percentage conversion (%) ([4]; 11 μg/mL NmSiaDW, 10 min): 0% | Percentage conversion (%) ([4]; 0.66 mg/mL NmSiaDW, 10 h): 0%

CC(=O)NC1C(O)CC(OCC2OC(OCCCN)C(O)C(O)C2O)(C(=O)O)OC1C(O)C(O)CO (stereo not shown) [Neu5Acα2-6GalβProNH2]
Product [1]: √

CC(=O)NC[C@@H](O)[C@@H](O)[C@H](O)[C@@H](C=O)NC(C)=O [ManNAc6NAc, 6-N-acetyl-6-deoxy-N-acetylmannosamine]
Percentage conversion (%) CMP-Sialic acid [2]: 87 ± 2 ^b % | Percentage conversion (%) Transferase Reaction [3]: 0%

Leg5,7Ac2α2-3Galβ1-3GalNAcβProN3
Product [1]: Not Detected

[N-]=[N+]=NCC(=O)N[C@@H]1C(O)O[C@H](CO)[C@@H](O)[C@@H]1O (stereo partly shown) [ManNAz, N-azidoacetylmannosamine]
Percentage conversion (%) CMP-Sialic acid [2]: Quantitative ^b

CC(=O)N[C@@H]1C(O)O[C@H](CO)[C@@H](N=[N+]=[N-])[C@@H]1O (stereo partly shown) [ManNAc4N3, 4-azido-4-deoxy-N-acetylmannosamine]
Percentage conversion (%) CMP-Sialic acid [2]: 90 ± 3 ^b %

CC(=O)N[C@H]1[C@H]([C@H](O)[C@H](O)CO)O[C@@](OC[C@H]2O[C@H](O[C@H]3C[C@](OC[C@H]4O[C@H](O[C@H]5C[C@](OCCCNC(=O)OCc6ccccc6)(C(=O)O)O[C@@H]([C@H](O)[C@H](O)CO)[C@@H]5NC(C)=O)[C@H](O)[C@@H](O)[C@H]4O)(C(=O)O)O[C@@H]([C@H](O)[C@H](O)CO)[C@@H]3NC(C)=O)[C@H](O)[C@@H](O)[C@H]2O)(C(=O)O)C[C@@H]1O[C@H]1O[C@H](CO)[C@H](O)[C@H](O)[C@H]1O [G6, Galα1(-4Neu5Acα2-6Galα1)2-4Neu5AcαProNHCbz]
Km [6]: 230 ± 40 µM | kcat [6]: 11.9 ± 0.5 s⁻¹

O=C(O)[C@H]1O[C@H](OP(=O)(O)OP(=O)(O)OC[C@H]2O[C@@H](n3ccc(=O)[nH]c3=O)[C@H](O)[C@@H]2O)[C@H](O)[C@@H](O)[C@@H]1O [UDP-GlcA]
Percentage conversion (%) ([4]; 11 μg/mL NmSiaDW, 10 min): 0% | Percentage conversion (%) ([4]; 0.66 mg/mL NmSiaDW, 10 h): 0%

CC(=O)N[C@H]1[C@H]([C@H](O)[C@H](O)CO)O[C@](OP(=O)(O)OC[C@H]2O[C@@H](n3ccc(N)nc3=O)[C@H](O)[C@@H]2O)(C(=O)O)C[C@@H]1O [CMP-Neu5Ac, cytidine-5′-monophosphate Neu5Ac]
Percentage conversion (%) ([4]; 11 μg/mL NmSiaDW, 10 min): 0% | Percentage conversion (%) ([4]; 0.66 mg/mL NmSiaDW, 10 h): 0%

CC(=O)N[C@H]1[C@H]([C@H](O)[C@H](O)CO)O[C@@](OC[C@H]2O[C@H](O[C@H]3C[C@](OC[C@H]4O[C@H](O[C@H]5C[C@](OC[C@H]6O[C@H](O[C@H]7C[C@](OCCCNC(=O)OCc8ccccc8)(C(=O)O)O[C@@H]([C@H](O)[C@H](O)CO)[C@@H]7NC(C)=O)[C@H](O)[C@@H](O)[C@H]6O)(C(=O)O)O[C@@H]([C@H](O)[C@H](O)CO)[C@@H]5NC(C)=O)[C@H](O)[C@@H](O)[C@H]4O)(C(=O)O)O[C@@H]([C@H](O)[C@H](O)CO)[C@@H]3NC(C)=O)[C@H](O)[C@@H](O)[C@H]2O)(C(=O)O)C[C@@H]1O[C@H]1O[C@H](CO)[C@H](O)[C@H](O)[C@H]1O [G8, Galα1(-4Neu5Acα2-6Galα1)3-4Neu5AcαProNHCbz]
Km [6]: 250 ± 40 µM | kcat [6]: 10.3 ± 0.5 s⁻¹

CC(=O)N[C@@H]1C(O)O[C@H](CN=[N+]=[N-])[C@@H](O)[C@@H]1O (stereo partly shown) [ManNAc6N3, 6-azido-6-deoxy-N-acetylmannosamine]
Percentage conversion (%) CMP-Sialic acid [2]: 91 ± 10 ^b %

CC(=O)N[C@H]1[C@H]([C@H](O)[C@H](O)COC(C)=O)OC(O)(C(=O)O)C[C@@H]1O (stereo partly shown) [Neu5,9Ac, 9-O-acetyl-N-acetylneuraminic acid]
Percentage conversion (%) Transferase Reaction [3]: 0% | Percentage conversion (%) CMP-Sialic acid [7]: 61 ± 2 ^a %

C[C@@H]1O[C@H](OP(=O)(O)OP(=O)(O)OC[C@H]2O[C@@H](n3cnc4c(=O)[nH]c(N)nc43)[C@H](O)[C@@H]2O)[C@@H](O)[C@H](O)[C@@H]1O [GDP-Fucose]
Percentage conversion (%) ([4]; 11 μg/mL NmSiaDW, 10 min): 0% | Percentage conversion (%) ([4]; 0.66 mg/mL NmSiaDW, 10 h): 0%

CC(=O)N[C@H]1[C@H]([C@H](O)[C@H](O)CO)OC(O)(C(=O)O)C[C@@H]1OC(C)=O (stereo partly shown) [Neu4,5Ac, 4-O-acetyl-N-acetylneuraminic acid]
Percentage conversion (%) Transferase Reaction [3]: 0% | Percentage conversion (%) CMP-Sialic acid [7]: 53 ± 1 ^a %

CO[C@H](CO)[C@@H](O)[C@@H]1OC(O)(C(=O)O)C[C@H](O)[C@H]1NC(C)=O (stereo partly shown) [Neu5Ac8OMe, 8-O-methyl-N-acetylneuraminic acid]
Percentage conversion (%) CMP-Sialic acid [7]: 79 ± 1 ^a %

O=C(O)C(=O)C[C@H](O)[C@@H](O)[C@@H](O)[C@H](O)[C@H](O)CO [Kdn, 2-keto-3-deoxynonulosonic acid]
Percentage conversion (%) CMP-Sialic acid [7]: Quantitative ^a
